Patent US7320996B2, “Indolinone protein kinase inhibitors and cyclooxygenase inhibitors for use in combination therapy for the treatment of cancer” (Sugen, Inc, priority 2001, dated 2008)

How the values were obtained:
[1] = molecular target: T1, PDGFR-β (NIH 3T3 cell lysate) (Homo sapiens, UniProt P09619); test: PDGFR bioassay, ELISA; format: biochemical; conditions: read-out: bio PDGF IC50
T1 construct: host or cells: NIH 3T3
Experimental: Corning 96-well Elisa plates • 2. 28D4C10 monoclonal anti-PDGFR antibody (SUGEN, Inc.). • 3. PBS. • 4. TBST Buffer. • 5. Blocking Buffer (same as for EGFR bioassay). • 6. PDGFR-β expressing NIH 3T3 cell lysate (SUGEN, Inc.). • 7. TBS Buffer. • 8. TBS+10% DMSO. • 9. ATP. • 10. MnCl2. • 11. Kinase buffer phosphorylation mix: for 10 ml, mix 250 μl 1M TRIS, 200 μl 5M NaCl, 100 μl 1M MnCl2 and 50 μl 100 mM Triton X-100 in enough dH2O to make 10 ml. • 12. NUNC 96-well V bottom polypropylene plates. • 13. EDTA. • 14. Rabbit polyclonal anti-phosphotyrosine serum (SUGEN, Inc.). • 15. Goat anti-rabbit IgG peroxidase conjugate (Biosource Cat. No. ALI0404). • 16. ABTS. • 17. Hydrogen peroxide, 30% solution. • 18. ABTS/H2O2. • 19. 0.2 M HCl. Procedure: • 1. Coat Corning 96 well ELISA plates with 0.5 μg 28D4C10 in 100 μl PBS per well, store overnight at 4° C. • 2. Remove unbound 28D4C10 from wells by inverting plate to remove liquid. • Wash 1×with dH2O. Pat the plate on a paper towel to remove excess liquid. • 3. Add 150 μl of Blocking Buffer to each well. Incubate for 30 min. at room temperature with shaking. • 4. Wash plate 3×with deionized water, then once with TBST. Pat plate on a paper towel to remove excess liquid and bubbles. • 5. Dilute lysate in HNTG (10 μg lysate/100 μl HNTG). • 6. Add 100 μl of diluted lysate to each well. Shake at room temperature for 60 min. • 7. Wash plates as described in Step 4. • 8. Add 80 μl working kinase buffer mix to ELISA plate containing captured PDGFR. • 9. […] Add 10 μl diluted test compound to ELISA plate. To control wells, add 10 μl TBS+10% DMSO. Incubate with shaking for 30 minutes at room temperature. • 11. Add 10 μl ATP directly to all wells except negative control well (final well volume should be approximately 100 μl with 20 μM ATP in each well.) Incubate 30 minutes with shaking. • 12. Stop reaction by adding 10 μl of EDTA solution to each well. • 13. Wash 4×with deionized water, twice with TBST. • 14. Add 100 μl anti-phosphotyrosine (1:3000 dilution in TBST) per well. Incubate with shaking for 30-45 min. at room temperature. • 15. Wash as in Step 4. • 16. […] Incubate with shaking for 30 min. at room temperature. • 17. Wash as in Step 4. • 18. Add 100 μl of ABTS/H2O2 solution to each well. • 19. Incubate 10 to 30 minutes with shaking. Remove any bubbles. • 20. If necessary stop reaction with the addition of 100 μl 0.2 M HCl per well. • 21.

[2] = molecular target: T2, HER-2 kinase (EGFr/HER-2 chimera/3T3-C7 cell line) (Homo sapiens, UniProt P04626); test: Cellular HER-2 kinase assay, whole-cell ELISA; format: cell-based; conditions: read-out: Her2 Kinase IC50
T2 construct: fused on or other part: EGFR extracellular part, stimulated by EGF and captured by the anti-EGFR antibody SUMO1; P00533 (Epidermal growth factor receptor)
Experimental: This assay is used to measure HER-2 kinase activity in whole cells in an ELISA format.
Fetal Bovine Serum (FBS, GIBCO Catalog #16000-044), heat inactivated in a water bath for 30 min. at 56° C. • 3. […] PBS. • 9. […] Corning 96-well ELISA Plates. • 12. NUNC 96-well V bottom polypropylene plates. • 13. […] SUMO 1: monoclonal anti-EGFR antibody (SUGEN, Inc.). • 15. TBST Buffer. • 16. Blocking Buffer: 5% Carnation Instant Milk® in PBS. • 17. […] Suspend powder in 100 uL of 10 mM HCl. Add 100 uL 10 mM NaOH. Add 800 uL PBS and transfer to an Eppendorf tube, store at −20° C. until ready to use. • 18. […] EDTA. • 20. Na3VO4. […] Boil in microwave for one minute (solution becomes clear). • Cool to room temperature. Adjust pH to 10. Repeat heating/cooling cycle until pH remains at 10. • 21. 200 mM Na4P2O7. • 22. Rabbit polyclonal antiserum specific for phosphotyrosine (anti-Ptyr antibody, SUGEN, Inc.). • 23. Affinity purified antiserum, goat anti-rabbit IgG antibody, peroxidase conjugate (Biosource Cat #ALI0404). • 24. ABTS Solution. • 25. 30% Hydrogen peroxide solution. • 26. ABTS/H2O2. • 27. 0.2 M HCl. Procedure: • 1. Coat Corning 96 well ELISA plates with SUMO1 at 1.0 ug per well in PBS, 100 ul final volume/well. Store overnight at 4° C. • 2. On day of use, remove coating buffer and wash plate 3 times with dH2O and once with TBST buffer. All washes in this assay should be done in this manner, unless otherwise specified. • 3. Add 100 ul of Blocking Buffer to each well. Incubate plate, with shaking, for 30 min. at room temperature. Just prior to use, wash plate. • 4. Use EGFr/HER-2 chimera/3T3-C7 cell line for this assay. • 5. Choose dishes having 80-90% confluence. Collect cells by trypsinization and centrifuge at 1000 rpm at room temperature for 5 min. • 6. Resuspend cells in starve medium and count with trypan blue. Viability above 90% is required. Seed cells in starve medium at a density of 2,500 cells per well, 90 ul per well, in a 96 well microtiter plate. Incubate seeded cells overnight at 37° under 5% CO2. • 7. Start the assay two days after seeding. • 8. Test compounds are dissolved in 4% DMSO. Samples are then further diluted directly on plates with starve-DMEM. Typically, this dilution will be 1:10 or greater. […] Incubate at 37° C. for 10 min. • 13. Remove test compound, EGF, and DMEM. Wash cells once with PBS. • 14. Transfer HNTG* to cells, 100 ul per well. Place on ice for 5 minutes. • Meanwhile, remove blocking buffer from ELISA plate and wash. • 15. Scrape cells from plate with a micropipettor and homogenize cell material by repeatedly aspirating and dispensing the HNTG* lysis buffer. Transfer lysate to a coated, blocked, washed ELISA plate. Or, use a Costar transfer cartridge to transfer lysate to the plate. • 16. Incubate, with shaking, at room temperature for 1 hr. • 17. Remove lysate, wash. Transfer freshly diluted anti-Ptyr antibody (1:3000 in TBST) to ELISA plate, 100 ul per well. • 18. Incubate, with shaking, at room temperature, for 30 min. • 19. Remove anti-Ptyr antibody, wash. Transfer freshly diluted BIOSOURCE antibody to ELISA plate (1:8000 in TBST, 100 ul per well). • 20. Incubate, with shaking, at room temperature for 30 min. • 21. Remove BIOSOURCE antibody, wash. Transfer freshly prepared ABTS/H2O2 solution to ELISA plate, 100 ul per well. • 22. […] Remove any bubbles. • 23. Stop reaction with the addition of 100 ul of 0.2M HCl per well. • 24.

[3] = molecular target: T3, EGFR (A431 cell lysate) (Homo sapiens, UniProt P00533); test: EGFR bioassay, ELISA; format: biochemical; conditions: read-out: bio EGF IC50
T3 construct: A431 cell lysate (SUGEN, Inc.); host or cells: A431
Experimental: This assay is used to the in vitro kinase activity of FGF1-R in an ELISA assay.
Corning 96-well Elisa plates. • 2. SUMOL1 monoclonal anti-EGFR antibody (SUGEN, Inc.). • 3. PBS • 4. TBST Buffer • 5. Blocking Buffer: for 100 ml, mix 5.0 g Carnation Instant Non-fat Milk® with 100 ml of PBS. • 6. A431 cell lysate (SUGEN, Inc.). • 7. TBS Buffer: • 8.
bring to 1 liter total volume with dH2O. • 9. […] This reagent should be made up immediately prior to use and kept on ice. • 10. 1.0 mM MnCl2. • 11. […] Prepare just prior to use, keep on ice. • 12. NUNC 96-well V bottom polypropylene plates. • 13. EDTA. • 14. Rabbit polyclonal anti-phosphotyrosine serum (SUGEN, Inc.). • 15. Goat anti-rabbit IgG peroxidase conjugate (Biosource Cat. No. ALI0404). • 16. ABTS. • 17. 30% Hydrogen peroxide. • 18. ABTS/H2O2 • 19. 0.2 M HCl. Procedure: • 1. Coat Corning 96 well ELISA plates with 0.5 μg SUMO1 in 100 μl PBS per well, store overnight at 4° C. • 2. Remove unbound SUMO1 from wells by inverting plate to remove liquid. Wash 1×with dH2O. Pat the plate on a paper towel to remove excess liquid. • 3. Add 150 μl of Blocking Buffer to each well. Incubate, with shaking, for 30 min. at room temperature. • 4. Wash plate 3×with deionized water, then once with TBST. Pat plate on a paper towel to remove excess liquid and bubbles. • 5. Dilute lysate in PBS (7 μg lysate/100 μl PBS). • 6. Add 100 μl of diluted lysate to each well. Shake at room temperature for 1 hr. • 7. Wash plates as in 4, above. • 8. Add 120 μl TBS to ELISA plate containing captured EGFR. • 9. […] Add 13.5 μl diluted test compound to ELISA plate. To control wells, add 13.5 μl TBS in 10% DMSO. • 11. Incubate, with shaking, for 30 minutes at room temperature. • 12. Add 15 μl phosphorylation mix to all wells except negative control well. Final well volume should be approximately 150 μl with 3 μM ATP/5 mM MnCl2 final concentration in each well. Incubate with shaking for 5 minutes. • 13. Stop reaction by adding 16.5 μl of EDTA solution while shaking. Shake for additional 1 min. • 14. Wash 4×with deionized water, 2×with TBST. • 15. Add 100 μl anti-phosphotyrosine (1:3000 dilution in TBST) per well. Incubate, with shaking, for 30-45 min. at room temperature. • 16. Wash as in 4, above. • 17. […] Incubate with shaking for 30 min. at room temperature. • 18. Wash as in 4, above. • 19. Add 100 μl of ABTS/H2O2 solution to each well. • 20. Incubate 5 to 10 minutes with shaking. Remove any bubbles. • 21. If necessary, stop reaction by adding 100 μl 0.2 M HCl per well. • 22.

[4] = molecular target: T4, GST-Flk1 (Mus musculus, UniProt P35918); test: GST-FLK-1 bioassay (bio flkGST), ELISA; format: biochemical
T4 construct: GST-Flk1cd purified from sf9 recombinant baculovirus transformation (SUGEN, Inc.); host or cells: Sf9 (baculovirus)
Experimental: This assay analyzes the tyrosine kinase activity of GST-Flk1 on poly(glu,tyr) peptides.
• 1. […] Preparation of poly(glu,tyr)(pEY) coated assay plates: Coat 2 ug/well of poly(glu,tyr)(pEY) in 100 ul PBS, hold at room temperature for 2 hours or at 4° C. overnight. Cover plates well to prevent evaporation. • 4. […] When all reagents have dissolved, adjust the pH to 7.2 with HCl. Bring total volume to 1 L with dH2O. • 5. PBST Buffer: to 1 L of PBS Buffer, add 1.0 ml Tween-20. • 6. […] Adjust pH to 7.2 with HCl. Add 10 g BSA, stir to dissolve. Bring total volume to 1 L with dH2O. Filter to remove particulate matter. • 7. […] Adjust total volume to 1 L with PBS buffer, filter to remove particulate matter. • 8. 50 mM Hepes pH 7.5. • 9. GST-Flk1cd purified from sf9 recombinant baculovirus transformation (SUGEN, Inc.). • 10. 4% DMSO in dH2O. • 11. 10 mM ATP in dH2O. • 12. 40 mM MnCl2 • 13. […] Add 10 N NaOH until EDTA dissolves. Adjust pH to 8.0. Adjust total volume to 100 ml with dH2O. • 16. […] Anti-phosphotyrosine monoclonal antibody conjugated to horseradish peroxidase (PY99 HRP, Santa Cruz Biotech). • 18. 2,2′-Azinobis(3-ethylbenzthiazoline-6-sulfonic acid (ABTS, Moss, Cat. No. ABST). • 19. 10% SDS. Procedure: • 1. Coat Corning 96-well ELISA plates with 2 μg of polyEY peptide in sterile PBS as described in step 3 of Materials and Reagents. • 2. Remove unbound liquid from wells by inverting plate. Wash once with TBST. Pat the plate on a paper towel to remove excess liquid. • 3. Add 100 μl of 1% BSA in PBS to each well. Incubate, with shaking, for 1 hr. at room temperature. • 4. Repeat step 2. • 5. Soak wells with 50 mM HEPES (pH 7.5) (150 μl/well). • 6. Dilute test compound with dH2O/4% DMSO to 4 times the desired final assay concentration in 96-well polypropylene plates. • 7. Add 25 μl diluted test compound to ELISA plate. In control wells, place 25 μl of dH2O/4% DMSO. • 8. […] Add 25 μl 0.5M EDTA to negative control wells. • 10. Dilute GST-Flk1 to 0.005 μg (5 ng)/well with KDB. • 11. Add 50 μl of diluted enzyme to each well. • 12. Incubate, with shaking, for 15 minutes at room temperature. • 13. […] Wash 3×with TBST and pat plate on paper towel to remove excess liquid. • 15. […] Incubate, with shaking, for 90 min. at room temperature. • 16. Wash as in step 14. • 17. Add 100 μl of room temperature ABTS solution to each well. • 18. […] Remove any bubbles. • 19. Stop reaction by adding 20 μl of 10% SDS to each well. • 20.

[5] = molecular target: T5, human cdk2/cyclin A (Homo sapiens, UniProt P24941); test: CDK2/cyclin A scintillation proximity assay (cdk2spa); format: biochemical; conditions: read-out: cdk2spa C50
T5 construct: host or cells: Sf9
Experimental: Amersham Redivue [γ^33P] […] Amersham streptavidin coated polyvinyltoluene SPA beads (Amersham catalog #RPNQ0007). The beads should be reconstituted in PBS without magnesium or calcium, at 20 mg/ml. • 4. Activated cdk2/cyclin A enzyme complex purified from Sf9 cells (SUGEN, Inc.). • 5. Biotinylated peptide substrate (Debtide). […] The ultimate concentration per well will be 0.5 μM “cold” ATP, 0.1 μg Debtide and 0.2 μCi γ^33P ATP. • 7. […] 10 mM ATP in dH2O. • 9. 1M Tris, pH adjusted to 7.4 with HCl. • 10. 1M MgCl2. • 11. 1M DTT. • 12. […] 0.5M EDTA. • 14. […] Procedure: • 1. Prepare solutions of test compounds at 5×the desired final concentration in 5% DMSO. Add 10 ul to each well. For negative controls, use 10 ul 5% DMSO alone in wells. • 2. […] Add 20 ul enzyme to each well. • 4. Add 10 μL of 0.5 M EDTA to the negative control wells. • 5. To start kinase reaction, add 20 μL of peptide/ATP mixture to each well. • Incubate for 1 hr. without shaking. • 6. Add 200 μl stop solution to each well. • 7. Hold at least 10 min. • 8. […] Count plate using Trilux or similar reader.

T2 sequence (P04626 720-987 limits assumed, change not shown): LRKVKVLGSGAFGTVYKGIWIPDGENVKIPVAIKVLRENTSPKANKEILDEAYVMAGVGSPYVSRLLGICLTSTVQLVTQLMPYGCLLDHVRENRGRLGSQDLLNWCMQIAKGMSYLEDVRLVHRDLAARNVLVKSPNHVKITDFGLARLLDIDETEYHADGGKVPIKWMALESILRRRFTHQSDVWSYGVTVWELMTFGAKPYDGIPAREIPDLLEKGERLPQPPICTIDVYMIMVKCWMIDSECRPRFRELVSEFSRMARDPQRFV
T1 sequence (P09619 33-1106): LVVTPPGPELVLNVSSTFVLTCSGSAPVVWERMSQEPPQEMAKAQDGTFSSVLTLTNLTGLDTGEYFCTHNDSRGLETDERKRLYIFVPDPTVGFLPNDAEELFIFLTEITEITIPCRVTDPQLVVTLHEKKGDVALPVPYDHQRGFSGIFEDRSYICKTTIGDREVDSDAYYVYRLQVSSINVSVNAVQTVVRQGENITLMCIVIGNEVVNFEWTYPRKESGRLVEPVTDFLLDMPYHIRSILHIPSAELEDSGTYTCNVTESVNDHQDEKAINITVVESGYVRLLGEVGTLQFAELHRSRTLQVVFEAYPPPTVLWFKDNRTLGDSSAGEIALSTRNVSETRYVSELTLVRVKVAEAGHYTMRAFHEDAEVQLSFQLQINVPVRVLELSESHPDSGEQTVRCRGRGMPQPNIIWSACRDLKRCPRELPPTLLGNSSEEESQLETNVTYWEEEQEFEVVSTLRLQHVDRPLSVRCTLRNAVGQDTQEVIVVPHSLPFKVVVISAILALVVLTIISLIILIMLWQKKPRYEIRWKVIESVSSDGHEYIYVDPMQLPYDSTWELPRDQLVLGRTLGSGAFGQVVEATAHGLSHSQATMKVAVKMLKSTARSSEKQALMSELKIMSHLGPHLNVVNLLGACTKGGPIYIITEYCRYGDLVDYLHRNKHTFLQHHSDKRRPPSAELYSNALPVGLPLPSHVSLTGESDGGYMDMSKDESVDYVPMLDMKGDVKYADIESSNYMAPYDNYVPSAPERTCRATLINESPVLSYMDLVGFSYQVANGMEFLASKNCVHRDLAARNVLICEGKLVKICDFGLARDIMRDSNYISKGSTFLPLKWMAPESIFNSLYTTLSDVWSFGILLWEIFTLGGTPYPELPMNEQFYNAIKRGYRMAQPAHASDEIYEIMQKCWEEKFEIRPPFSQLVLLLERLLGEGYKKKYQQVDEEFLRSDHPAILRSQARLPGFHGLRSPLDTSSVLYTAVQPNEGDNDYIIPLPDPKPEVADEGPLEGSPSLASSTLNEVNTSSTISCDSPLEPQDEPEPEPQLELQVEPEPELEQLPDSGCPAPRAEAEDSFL
T4 sequence (P35918 784-1345 limits assumed): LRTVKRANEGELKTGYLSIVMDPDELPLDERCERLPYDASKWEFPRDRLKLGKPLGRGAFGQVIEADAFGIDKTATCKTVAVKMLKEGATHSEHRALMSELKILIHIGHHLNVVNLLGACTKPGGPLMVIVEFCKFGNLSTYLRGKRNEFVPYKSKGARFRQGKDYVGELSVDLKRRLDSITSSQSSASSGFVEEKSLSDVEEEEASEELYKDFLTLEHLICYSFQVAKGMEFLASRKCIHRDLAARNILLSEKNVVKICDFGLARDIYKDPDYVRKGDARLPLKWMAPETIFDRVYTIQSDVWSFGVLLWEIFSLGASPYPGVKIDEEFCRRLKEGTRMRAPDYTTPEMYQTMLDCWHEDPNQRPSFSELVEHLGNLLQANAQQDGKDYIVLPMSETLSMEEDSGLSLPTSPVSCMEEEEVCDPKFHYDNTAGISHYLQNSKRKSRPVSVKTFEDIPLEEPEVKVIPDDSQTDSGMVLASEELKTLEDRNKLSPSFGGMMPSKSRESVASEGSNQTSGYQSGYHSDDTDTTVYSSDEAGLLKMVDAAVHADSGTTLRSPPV
T3 sequence (P00533 25-1210): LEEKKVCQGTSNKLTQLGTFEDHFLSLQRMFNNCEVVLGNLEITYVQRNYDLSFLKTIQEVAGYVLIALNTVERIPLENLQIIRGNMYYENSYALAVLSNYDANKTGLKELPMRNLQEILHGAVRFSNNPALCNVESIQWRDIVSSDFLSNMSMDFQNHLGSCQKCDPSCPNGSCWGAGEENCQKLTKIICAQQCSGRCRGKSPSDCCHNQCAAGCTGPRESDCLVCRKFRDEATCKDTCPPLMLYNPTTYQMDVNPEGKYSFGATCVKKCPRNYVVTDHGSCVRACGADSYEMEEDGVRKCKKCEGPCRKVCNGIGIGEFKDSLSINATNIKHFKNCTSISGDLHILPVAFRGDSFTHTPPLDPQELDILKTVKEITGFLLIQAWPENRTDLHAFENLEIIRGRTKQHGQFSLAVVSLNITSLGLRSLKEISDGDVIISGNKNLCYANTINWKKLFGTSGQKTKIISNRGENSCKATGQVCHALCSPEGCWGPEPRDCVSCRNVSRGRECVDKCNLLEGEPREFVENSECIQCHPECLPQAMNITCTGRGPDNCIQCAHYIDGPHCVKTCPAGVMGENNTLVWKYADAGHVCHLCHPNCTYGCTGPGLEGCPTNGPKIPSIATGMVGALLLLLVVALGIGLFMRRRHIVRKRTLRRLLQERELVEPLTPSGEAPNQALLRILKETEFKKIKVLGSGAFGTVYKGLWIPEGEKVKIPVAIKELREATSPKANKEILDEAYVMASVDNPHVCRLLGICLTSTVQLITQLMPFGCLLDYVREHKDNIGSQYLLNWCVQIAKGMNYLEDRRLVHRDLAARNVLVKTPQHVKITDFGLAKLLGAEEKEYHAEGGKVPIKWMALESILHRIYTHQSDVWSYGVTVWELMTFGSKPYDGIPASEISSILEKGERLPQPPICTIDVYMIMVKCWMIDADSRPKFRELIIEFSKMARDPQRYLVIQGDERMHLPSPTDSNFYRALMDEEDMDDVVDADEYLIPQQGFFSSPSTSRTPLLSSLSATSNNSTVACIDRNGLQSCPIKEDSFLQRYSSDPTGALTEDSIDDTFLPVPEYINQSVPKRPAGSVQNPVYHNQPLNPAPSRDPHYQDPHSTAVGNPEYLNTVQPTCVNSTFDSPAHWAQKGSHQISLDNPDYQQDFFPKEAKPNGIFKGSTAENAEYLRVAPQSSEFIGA

COc1ccccc1-c1ccc2c(c1)NC(=O)/C2=C\c1[nH]c(C)c(C(=O)NCCN(C)C)c1C [Example 54, 5-[6-(2-Methoxyphenyl)-2-oxo-1,2-dihydroindol-3-ylidenemethyl]-2,4-dimethyl-1H-pyrrole-3-carboxylic Acid (2-dimethylaminoethyl)amide]
IC50 [1]: < 0.78 µM

CCN(CC)CCCNC(=O)c1c(C)[nH]c(/C=C2\C(=O)Nc3cccc(C(=O)Nc4ccc(OC)c(Cl)c4)c32)c1C [Example 69, 3-[4-(3-Diethylaminopropylcarbamoyl)-3,5-dimethyl-1H-pyrrol-2-ylmethylene]-2-oxo-2,3-dihydro-1H-indole-4-carboxylic Acid (3-chloro-4-methoxyphenyl)amide]
IC50 [2]: > 100 µM | IC50 [3]: > 100 µM

CCN(CC)CCNC(=O)c1c(C(C)C)[nH]c(/C=C2\C(=O)Nc3ccc(Br)cc32)c1C(C)C [Example 71]
IC50 [3]: > 100 µM

COc1ccccc1-c1ccc2c(c1)NC(=O)/C2=C\c1[nH]c(C)c(C(=O)NCCN2CCCC2)c1-c1ccccc1 [Example 43, 5-[6-(2-Methoxyphenyl)-2-oxo-1,2-dihydroindol-3-ylidenemethyl]-2-methyl-4-phenyl-1H-pyrrole-3-carboxylic Acid (2-pyrrolidin-1-ylethyl)amide]
IC50 [3]: > 100 µM

Cc1[nH]c(/C=C2\C(=O)Nc3ccc(S(=O)(=O)N(C)C)cc32)c(C)c1C(=O)NCCN1CCCC1 [Example 82, 5-(5-Dimethylsulfamoyl-2-oxo-1,2-dihydroindol-3-ylidenemethyl)-2,4-dimethyl-1H-pyrrole-3-carboxylic Acid (2-pyrrolidin-1-ylethyl)amide]
IC50 [2]: > 100 µM | IC50 [3]: > 100 µM

Cc1c(C(=O)NCCCN2CCCC2)[nH]c(/C=C2\C(=O)Nc3ccc(Br)cc32)c1C(=O)c1ccccc1 [Example 24, 4-Benzoyl-5-(5-bromo-2-oxo-1,2-dihydroindol-3-ylidenemethyl)-3-methyl-1H-pyrrole-2-carboxylic Acid (3-pyrrolidin-1-ylpropyl)amide]
IC50 [1]: > 100 µM

Cc1c(C(=O)NCCCN2CCCC2)[nH]c(/C=C2\C(=O)Nc3cc(-c4ccccc4)ccc32)c1C(=O)c1ccccc1 [Example 25, 4-Benzoyl-3-methyl-5-(2-oxo-6-phenyl-1,2-dihydroindol-3-ylidenemethyl)-1H-pyrrole-2-carboxylic Acid (3-pyrrolidin-1-ylpropyl)amide]
IC50 [1]: > 100 µM

Cc1c(C(=O)NCCCN2CCOCC2)[nH]c(/C=C2\C(=O)Nc3ccc(Br)cc32)c1C(=O)c1ccccc1 [Example 22, 4-Benzoyl-5-(5-bromo-2-oxo-1,2-dihydroindol-3-ylidenemethyl)-3-methyl-1H-pyrrole-2-carboxylic Acid (3-morpholin-4-ylpropyl)amide]
IC50 [1]: > 100 µM | IC50 [4]: > 20 µM | IC50 [3]: > 100 µM

CNS(=O)(=O)c1ccc2c(c1)/C(=C/c1[nH]cc(C(=O)NCC(=O)O)c1C)C(=O)N2 [Example 118, {[4-Methyl-5-(5-methylsulfamoyl-2-oxo-1,2-dihydro-indol-3-ylidenemethyl)-1H-pyrrole-3-carbonyl]-amino}-acetic Acid]
IC50 [1]: 1.2 µM | IC50 [5]: 0.002 µM | IC50 [2]: > 100 µM | IC50 [4]: 1.93 µM

Cc1[nH]c(/C=C2\C(=O)Nc3cc(-c4ccccc4)ccc32)c(C)c1C(=O)NCCN(C)C [Example 49, 2,4-Dimethyl-5-(2-oxo-6-phenyl-1,2-dihydroindol-3-ylidenemethyl)-1H-pyrrole-3-carboxylic Acid (2-dimethylaminoethyl)amide]
IC50 [1]: < 0.78 µM | IC50 [2]: > 100 µM | IC50 [3]: > 100 µM

CCN(CC)CCCNC(=O)c1c(C)[nH]c(/C=C2\C(=O)Nc3cc(-c4ccccc4)ccc32)c1C [Example 68, 2,4-Dimethyl-5-(2-oxo-6-phenyl-1,2-dihydroindol-3-ylidenemethyl)-1H-pyrrole-3-carboxylic Acid (3-diethylaminopropyl)amide]
IC50 [3]: > 100 µM

COc1ccccc1-c1ccc2c(c1)NC(=O)/C2=C\c1[nH]c(C)c(C(=O)NCCN(C)C)c1-c1ccccc1 [Example 45, 5-[6-(2-Methoxyphenyl)-2-oxo-1,2-dihydroindol-3-ylidenemethyl]-2-methyl-4-phenyl-1H-pyrrole-3-carboxylic Acid (2-dimethylaminoethyl)amide]
IC50 [1]: > 100 µM | IC50 [2]: > 100 µM | IC50 [3]: > 100 µM

CC(=O)c1c(/C=C2\C(=O)Nc3ccc(Br)cc32)[nH]c(C(=O)NCCCN2CCOCC2)c1C [Example 31, 4-Acetyl-5-(5-bromo-2-oxo-1,2-dihydroindol-3-ylidenemethyl)-3-methyl-1H-pyrrole-2-carboxylic Acid (3-morpholin-4-ylpropyl)amide]
IC50 [1]: > 100 µM | IC50 [4]: > 50 µM

Cc1cc(C(=O)NCCCN2CCCC2)[nH]c1/C=C1\C(=O)Nc2ccc(Br)cc21 [Example 6, 5-(5-Bromo-2-oxo-1,2-dihydroindol-3-ylidenemethyl)-4-methyl-1H-pyrrole-2-carboxylic Acid (3-pyrrolidin-1-yl-propyl)amide]
IC50 [1]: > 100 µM

Cc1[nH]c(/C=C2\C(=O)Nc3ccc(S(=O)(=O)Nc4ccccc4)cc32)c(C)c1C(=O)N1CCN(C)CC1 [Example 86, 3-[3,5-Dimethyl-4-(4-methylpiperazine-1-carbonyl)-1H-pyrrol-2-ylmethylene]-2-oxo-2,3-dihydro-1H-indole-5-sulfonic Acid Phenylamide]
IC50 [2]: > 100 µM

Cc1[nH]c(/C=C2\C(=O)Nc3ccc(Cl)cc32)c(C)c1C(=O)NCCN(C)C [Example 50, 5-(5-Chloro-2-oxo-1,2-dihydroindol-3-ylidenemethyl)-2,4-dimethyl-1H-pyrrole-3-carboxylic Acid (2-dimethylamino-ethyl)amide]
IC50 [1]: < 0.78 µM | IC50 [2]: > 100 µM | IC50 [3]: > 100 µM

CCOC(=O)CNC(=O)c1c[nH]c(/C=C2\C(=O)Nc3ccc(S(=O)(=O)NC)cc32)c1C [Example 117, {[4-Methyl-5-(5-methylsulfamoyl-2-oxo-1,2-dihydro-indol-3-ylidenemethyl)-1H-pyrrole-3-carbonyl]-amino}-acetic Acid Ethyl Ester]
IC50 [2]: > 100 µM | IC50 [3]: > 100 µM

CCN(CC)CCCNC(=O)c1c(C)[nH]c(/C=C2\C(=O)Nc3ccc(Br)cc32)c1-c1ccccc1 [Example 47, 5-(5-Bromo-2-oxo-1,2-dihydroindol-3-ylidenemethyl)-2-methyl-4-phenyl-1H-pyrrole-3-carboxylic Acid (3-diethylaminopropyl)amide]
IC50 [5]: > 20 µM

CCN(CC)CCNC(=O)c1c(C)[nH]c(/C=C2\C(=O)Nc3ccc(S(=O)(=O)N(C)C)cc32)c1C [Example 87, 5-(5-Dimethylsulfamoyl-2-oxo-1,2-dihydroindol-3-ylidenemethyl)-2,4-dimethyl-1H-pyrrole-3-carboxylic Acid (2-diethylaminoethyl)amide]
IC50 [3]: > 100 µM

CCN(CC)CCCNC(=O)c1[nH]c(/C=C2\C(=O)Nc3cc(OC)ccc32)cc1C [Example 16, 5-(6-Methoxy-2-oxo-1,2-dihydroindol-3-ylidenemethyl)-3-methyl-1H-pyrrole-2-carboxylic Acid (3-diethylamino-propyl)amide]
IC50 [4]: > 20 µM | IC50 [3]: > 100 µM

CCN(CC)CCCNC(=O)c1[nH]c(/C=C2\C(=O)Nc3ccc(OC)cc32)cc1C [Example 15, 5-(5-Methoxy-2-oxo-1,2-dihydroindol-3-ylidenemethyl)-3-methyl-1H-pyrrole-2-carboxylic Acid (3-diethylamino-propyl)amide]
IC50 [1]: > 100 µM | IC50 [4]: > 20 µM | IC50 [3]: > 100 µM
